Test results from patent US8906909B2 (Curis, Inc., priority 2009, dated 2014).

What was measured:
[1] = test system: HDACs (HeLa cell nuclear extracts); assay: HDAC enzymatic activity, Biomol Color de Lys system; format: biochemical
Method in brief: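 IC50 from sigmoidal dose-response fits of fluorescence (Ex 350–380, Em 440–460 nm). Compounds in DMSO dilution series incubated 1 h at 25 °C with HeLa nuclear extract HDACs and colorimetric substrate, pH 8.0 Tris/Cl buffer with NaCl, KCl, MgCl2, before developer termination.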

IC50 [1] [nM]	melting point [°C]	Structure (SMILES)
< 100	178 to 181	COCc1cccc(-c2nc(N3CCOCC3)c3sc(CN(C)c4ncc(C(=O)NO)cn4)cc3n2)c1 [Compound 139, N-hydroxy-2-(((2-(3-(methoxymethyl)phenyl)-4-morpholinothieno[3,2-d]pyrimidin-6-yl)methyl)(methyl)amino)pyrimidine-5-carboxamide]
< 100	170 to 183	CN(Cc1cc2nc(-c3ccc4c(c3)NCCO4)nc(N3CCOCC3)c2s1)c1ncc(C(=O)NO)cn1 [Compound 182, 2-(((2-(3,4-dihydro-2H-benzo[b][1,4]oxazin-6-yl)-4-morpholinothieno[3,2-d]pyrimidin-6-yl)methyl)(methyl)amino)-N-hydroxypyrimidine-5-carboxamide]
< 100	195 to 200	CN(Cc1cc2nc(-c3ccc(N)c(CO)c3)nc(N3CCOCC3)c2s1)c1ncc(C(=O)NO)cn1 [Compound 285, 2-(((2-(4-Amino-3-(hydroxymethyl)phenyl)-4-morpholinothieno[3,2-d]pyrimidin-6-yl)methyl)(methyl)amino)-N-hydroxypyrimidine-5-carboxamide]
< 100	185 to 195	CN(Cc1cc2nc(-c3ccc(O)cc3)nc(N3CCOCC3)c2s1)c1ncc(C(=O)NO)cn1 [Compound 133, N-hydroxy-2-(((2-(4-hydroxyphenyl)-4-morpholinothieno[3,2-d]pyrimidin-6-yl)methyl)(methyl)amino)pyrimidine-5-carboxamide]
100 to 1000	131 to 134	CS(=O)(=O)N1CCN(Cc2cc3nc(-c4cccc5[nH]ncc45)nc(N4CCN(CCCCCCC(=O)NO)CC4)c3s2)CC1 [Compound 32, 7-(4-(2-(1H-indazol-4-yl)-6-((4-(methylsulfonyl)piperazin-1-yl)methyl)thieno[3,2-d]pyrimidin-4-yl)piperazin-1-yl)-N-hydroxyheptanamide]
< 100	214 to 218	CN(Cc1cc2nc(-c3ccc(N)c(O)c3)nc(N3CCOCC3)c2s1)c1ncc(C(=O)NO)cn1 [Compound 279, 2-(((2-(4-Amino-3-hydroxyphenyl)-4-morpholinothieno[3,2-d]pyrimidin-6-yl)methyl)(methyl)amino)-N-hydroxypyrimidine-5-carboxamide]
< 100	192 to 196	CCN(CC)c1ccc(-c2nc(N3CCOCC3)c3sc(CN(C)c4ncc(C(=O)NO)cn4)cc3n2)cc1 [Compound 154, 2-(((2-(4-(Diethylamino)phenyl)-4-morpholinothieno[3,2-d]pyrimidin-6-yl)methyl)(methyl)amino)-N-hydroxypyrimidine-5-carboxamide]
100 to 1000	196 to 198	CC(C)CN(Cc1cc2nc(-c3cccc4[nH]ncc34)nc(N3CCOCC3)c2s1)c1ncc(C(=O)NO)cn1 [Compound 93, 2-(((2-(1H-indazol-4-yl)-4-morpholinothieno[3,2-d]pyrimidin-6-yl)methyl)(isobutyl)amino)-N-hydroxypyrimidine-5-carboxamide]
< 100	115 to 118	CN(CCCCCC(=O)NO)Cc1cc2nc(-c3cccc4[nH]ncc34)nc(N3CCOCC3)c2s1 [Compound 103, 6-(((2-(1H-indazol-4-yl)-4-morpholinothieno[3,2-d]pyrimidin-6-yl)methyl)(methyl)amino)-N-hydroxyhexanamide]
100 to 1000	> 300	O=C(/C=C/c1ccc(NCc2cc3nc(-c4cccc5[nH]ncc45)nc(N4CCOCC4)c3s2)cc1)NO [Compound 80, (E)-3-(4-((2-(1H-indazol-4-yl)-4-morpholinothieno[3,2-d]pyrimidin-6-yl)methylamino)phenyl)-N-hydroxyacrylamide]
< 100	183 to 185	CC(=O)Nc1cccc(-c2nc(N3CCOCC3)c3sc(CN(C)c4ncc(C(=O)NO)cn4)cc3n2)c1 [Compound 107, 2-(((2-(3-acetamidophenyl)-4-morpholinothieno[3,2-d]pyrimidin-6-yl)methyl)(methyl)amino)-N-hydroxypyrimidine-5-carboxamide]
< 100	110 to 115	CN(Cc1cc2nc(-c3ccc(OCCN)nc3)nc(N3CCOCC3)c2s1)c1ncc(C(=O)NO)cn1 [Compound 259, 2-(((2-(6-(2-Aminoethoxy)pyridin-3-yl)-4-morpholinothieno[3,2-d]pyrimidin-6-yl)methyl)(methyl)amino)-N-hydroxypyrimidine-5-carboxamide]
< 100	197 to 205	Nc1ccc(-c2nc(N3CCOCC3)c3sc(S(=O)(=O)Nc4ncc(C(=O)NO)cn4)cc3n2)cc1 [Compound 271, 2-[2-(4-Amino-phenyl)-4-morpholin-4-yl-thieno[3,2-d]pyrimidine-6-sulfonylamino]-pyrimidine-5-carboxylic acid hydroxyamide]
< 100	168 to 170	CN(Cc1cc2nc(-c3ccc(F)cc3)nc(N3CCOCC3)c2s1)c1ncc(C(=O)NO)cn1 [Compound 200, 2-(((2-(4-fluorophenyl)-4-morpholinothieno[3,2-d]pyrimidin-6-yl)methyl)(methyl)amino)-N-hydroxypyrimidine-5-carboxamide]
100 to 1000	143 to 145	CS(=O)(=O)N1CCN(Cc2cc3nc(-c4ccc(OCCCCCCC(=O)NO)cc4)nc(N4CCOCC4)c3s2)CC1 [Compound 321, N-Hydroxy-7-(4-(6-((4-(methylsulfonyl)piperazin-1-yl)methyl)-4-morpholinothieno[3,2-d]pyrimidin-2-yl)phenoxy)heptanamide]
< 100	143 to 145	CN(Cc1cc2nc(-c3ccc(OCCO)nc3)nc(N3CCOCC3)c2s1)c1ncc(C(=O)NO)cn1 [Compound 256, N-Hydroxy-2-(((2-(6-(2-hydroxyethoxy)pyridin-3-yl)-4-morpholinothieno[3,2-d]pyrimidin-6-yl)methyl)(methyl)amino)pyrimidine-5-carboxamide]
< 100	172 to 175	CN(C)c1cccc(-c2nc(N3CCOCC3)c3sc(CN(C)c4ncc(C(=O)NO)cn4)cc3n2)c1 [Compound 108, 2-(((2-(3-(dimethylamino)phenyl)-4-morpholinothieno[3,2-d]pyrimidin-6-yl)methyl)(methyl)amino)-N-hydroxypyrimidine-5-carboxamide]
< 100	208 to 210	CN(C)c1ccc(-c2nc(N3CCOCC3)c3sc(CN(C)c4ncc(C(=O)NO)cn4)cc3n2)cc1 [Compound 152, 2-(((2-(4-(dimethylamino)phenyl)-4-morpholinothieno[3,2-d]pyrimidin-6-yl)methyl)(methyl)amino)-N-hydroxypyrimidine-5-carboxamide]
< 100	125 to 130	COc1ccc(-c2nc(N3CCOCC3)c3sc(NCCCCCC(=O)NO)cc3n2)cn1 [Compound 233, 6-[2-(6-Methoxy-pyridin-3-yl)-4-morpholin-4-yl-thieno[3,2-d]pyrimidin-6-ylamino]-hexanoic acid hydroxyamide]
< 100	232 to 238	Nc1ccc(-c2nc(N3CCOCC3)c3sc(C(=O)NCC4CCN(c5ncc(C(=O)NO)cn5)CC4)cc3n2)cc1 [Compound 307, 2-(4-Aminophenyl)-N-((1-(5-(hydroxycarbamoyl)pyrimidin-2-yl)piperidin-4-yl)methyl)-4-morpholinothieno[3,2-d]pyrimidine-6-carboxamide]
< 100	222 to 223	CN(Cc1cc2nc(-c3ccc(C(F)(F)F)cc3)nc(N3CCOCC3)c2s1)c1ncc(C(=O)NO)cn1 [Compound 202, N-hydroxy-2-(methyl((4-morpholino-2-(4-(trifluoromethyl)phenyl)thieno[3,2-d]pyrimidin-6-yl)methyl)amino)pyrimidine-5-carboxamide]
< 100	162 to 165	CCOc1ccc(-c2nc(N3CCOCC3)c3sc(CN(C)c4ncc(C(=O)NO)cn4)cc3n2)cn1 [Compound 255, 2-(((2-(6-ethoxypyridin-3-yl)-4-morpholinothieno[3,2-d]pyrimidin-6-yl)methyl)(methyl)amino)-N-hydroxypyrimidine-5-carboxamide]
< 100	241 to 246	CN(Cc1cc2nc(-c3ccc(N)c(Cl)c3)nc(N3CCOCC3)c2s1)c1ncc(C(=O)NO)cn1 [Compound 275, 2-(((2-(4-Amino-3-chlorophenyl)-4-morpholinothieno[3,2-d]pyrimidin-6-yl)methyl)(methyl)amino)-N-hydroxypyrimidine-5-carboxamide]
< 100	145 to 147	O=C(CCCCNCc1cc2nc(-c3cccc4[nH]ncc34)nc(N3CCOCC3)c2s1)NO [Compound 42, 5-((2-(1H-indazol-4-yl)-4-morpholinothieno[3,2-d]pyrimidin-6-yl)methylamino)-N-hydroxypentanamide]
< 100	230 to 233	Cc1nc2ccc(-c3nc(N4CCOCC4)c4sc(CN(C)c5ncc(C(=O)NO)cn5)cc4n3)cc2[nH]1 [Compound 199, N-hydroxy-2-(methyl((2-(2-methyl-3H-benzo[d]imidazol-5-yl)-4-morpholinothieno[3,2-d]pyrimidin-6-yl)methyl)amino)pyrimidine-5-carboxamide]
100 to 1000	123 to 124	O=C(CCCCCN1CCN(Cc2cc3nc(-c4cccc5[nH]ncc45)nc(N4CCOCC4)c3s2)CC1)NO [Compound 12, 6-(4-((2-(1H-indazol-4-yl)-4-morpholinothieno[3,2-d]pyrimidin-6-yl)methyl)piperazin-1-yl)-N-hydroxyhexanamide]
< 100	222 to 225	CN(Cc1cc2nc(-c3ccc(N)c(N)c3)nc(N3CCOCC3)c2s1)c1ncc(C(=O)NO)cn1 [Compound 156, 2-(((2-(3,4-diaminophenyl)-4-morpholinothieno[3,2-d]pyrimidin-6-yl)methyl)(methyl)amino)-N-hydroxypyrimidine-5-carboxamide]
